Test results: patent US20230220105A1, “TUMOR ACTIVATED T CELL ENGAGERS AND METHODS OF USE THEREOF” (Janux Therapeutics, Inc., priority 2019, published 2023)

Experiments:
[1] = test system: MAGE-A3 TCR (TCR-1); assay: Kinetic binding of TCR to peptides (Octet BLI); details: Table 3; Ala mutants of Peptide-5 and controls
Method: BLI based kinetic binding of TCR to peptides was measured using a ForteBio Octet RED96 instrument. Biotinylated peptides were first directly captured on streptavidin biosensors. Sensors were quenched using excess biocytin and then baselined in buffer. A dilution series of TCR was made and associated onto the peptide loaded biosensor. Association and dissociation signals were monitored in real-time. Signals were fit to a 1:1 binding model in order to derive binding constants, kon and koff, as well as KD.

[2] = test system: TCR-1 binding to MAGE-A3 pMHC; assay: Inhibition of kinetic binding of TCR to its cognate pMHC (BLI); details: Table 3
Method: First, biotinylated pMHC was captured on streptavidin biosensors. Sensors were quenched using excess biocytin and then baselined in buffer. Inhibitory peptide was titrated in a two fold dilution series starting from 100 uM and pre-incubated with a constant concentration of 50 nM TCR. Peptide and TCR mixtures were then associated onto the pMHC loaded biosensor. Zero concentration of inhibitory peptide or zero concentration of TCR were used as controls. Association and dissociation signals were monitored in real-time. The maximal association signal was normalized from 100% (0 uM inhibitory peptide control) to 0% (0 nM TCR control) and plotted versus log-scale inhibitory peptide concentration.

[3] = test system: TCR-2; assay: Inhibitory peptide specificity evaluation (BLI); format: binding; details: 100 uM TCR on Peptide-5 saturated biosensor
Method: (§1) Potent inhibitory peptides were tested for TCR specific binding. […] This family of TCRs differ in sequence by point mutations in the CDR domains know to contribute to binding affinity and specificity for cognate MAGE-A3 pMHC. […] TCRs were associated at the extreme concentration of 100 uM onto the inhibitory peptide loaded biosensor. In parallel, 100 uM TCRs were associated on a blank control sensor to establish background signal related to non-specific binding of the TCRs. Association and dissociation signals were monitored in real-time.

[4] = test system: TCR-3; assay: Inhibitory peptide specificity evaluation (BLI); format: binding; details: 100 uM TCR on Peptide-5 saturated biosensor
Method: as §1

[5] = test system: TCR-4; assay: Inhibitory peptide specificity evaluation (BLI); format: binding; details: 100 uM TCR on Peptide-5 saturated biosensor
Method: as §1

[6] = test system: TCR-1; assay: Inhibitory peptide specificity evaluation (BLI); format: binding; details: 100 uM TCR on Peptide-5 saturated biosensor
Method: as §1

[7] = biological target: TCR-1 binding to MAGE-A3 pMHC; assay: Inhibition of equilibrium binding of TCR to its cognate pMHC (ELISA)
Method: Inhibition of TCR binding to its cognate pMHC was also measured in an ELISA format. Biotinylated pMHC was captured on neutravidin coated plates, quenched using excess biocytin, and washed. Inhibitory peptide was titrated in a half-log dilution series starting from 100 uM and pre-incubated with a constant concentration of 1 nM TCR. Inhibitory peptide and TCR mixtures were then incubated on the pMHC captured plates. A secondary HRP antibody conjugate that recognized the histag of the TCR was then used to detect the plate bound TCR. […] Dose dependent decrease of signal was indicative of peptides that compete for TCR binding to its cognate pMHC.

[8] = biological target: neutravidin alone (Gallus gallus, UniProt P02701); assay: Phagemid ELISA, neutravidin background; format: binding; details: clonal phage displaying the peptide; ELISA signal on neutravidin alone
Method: The next day the deep well plates were centrifuged to separate the soluble phagemid from the E. coli cells. The phagemid containing supernatants were then combined with PBS-Tween 20 (0.05%) + BSA (1%) blocking buffer and incubated in ELISA wells containing Neutravidin captured biotin-conjugated target or Neutravidin alone. After binding at 4 degrees the plates were washed, and specifically bound phage were detected by anti-m13 HRP conjugated antibodies using standard TMB-based chromogenic ELISA procedures. Daughter plates or individual wells were subjected to standard DNA sequencing for clonal peptide sequence identification.
The next day the deep well plates were centrifuged to separate the soluble phagemid from the E. coli cells. The phagemid containing supernatants were then combined with PBS-Tween 20 (0.05%) + BSA (1%) pH neutral blocking buffer and incubated in previously TCR coated and blocked wells. After binding at 4° C. the plates were washed and specifically bound phage were detected by anti-m13 HRP conjugated antibodies using standard TMB-based chromogenic ELISA procedures (FIG. 17B). Daughter plates or individual wells were subjected to standard DNA sequencing for peptide identification.

neutravidin alone, sequence (P02701 25-152): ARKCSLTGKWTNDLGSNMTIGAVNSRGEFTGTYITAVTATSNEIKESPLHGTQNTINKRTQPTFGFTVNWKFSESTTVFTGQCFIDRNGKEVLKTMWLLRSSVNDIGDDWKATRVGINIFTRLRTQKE

Row | Structure (SMILES) | Octet BLI Binds TCR [1] | Octet BLI Competes at 100 uM [2] | binding of Peptide-5 to TCR-2 [3] | binding of Peptide-5 to TCR-3 [4] | binding of Peptide-5 to TCR-4 [5] | binding of Peptide-5 to TCR-1 [6] | IC50 ([7]; Table 2, 1 nM TCR) | IC50 ([7]; Table 3) | Phage ELISA NAv bkgd [8]
1 | CC(C)[C@H](NC(=O)CNC(=O)CN)C(=O)N[C@@H](CO)C(=O)N[C@H]1CSSC[C@@H](C(=O)N[C@@H](Cc2c[nH]c3ccccc23)C(=O)N[C@H](C(=O)NCC(=O)NCC(=O)NCC(=O)NCC(=O)N[C@@H](CO)C(=O)NCCOCCOCCOCCOCCC(=O)N[C@@H](CCCCNC(=O)CCCC[C@@H]2SC[C@@H]3NC(=O)N[C@@H]32)C(N)=O)[C@@H](C)O)NC(=O)[C@H](Cc2ccccc2)NC(=O)[C@H](C)NC(=O)[C@H](CCC(=O)O)NC(=O)[C@H](CC(=O)O)NC(=O)[C@H](Cc2ccc(O)cc2)NC(=O)[C@H](C(C)C)NC(=O)[C@H](CC(=O)O)NC(=O)[C@H](CCCCN)NC1=O [Peptide-5] | Yes | Yes | signal was identical to that of background | signal was identical to that of background | signal was identical to that of background | readily bound | 600 nM | 600 nM | –
2 | CC(C)[C@H](NC(=O)[C@@H]1CSSC[C@H](NC(=O)CNC(=O)CNC(=O)CN)C(=O)N[C@@H](Cc2ccccc2)C(=O)N[C@@H](C(C)C)C(=O)N[C@@H](CO)C(=O)N2CCC[C@H]2C(=O)N[C@@H](C)C(=O)N[C@@H]([C@@H](C)O)C(=O)NCC(=O)N[C@@H](Cc2ccccc2)C(=O)N[C@@H]([C@@H](C)O)C(=O)N[C@@H](Cc2c[nH]c3ccccc23)C(=O)N1)C(=O)NCC(=O)NCC(=O)NCC(=O)NCC(=O)N[C@@H](CO)C(=O)NCCOCCOCCOCCOCCC(=O)N[C@@H](CCCCNC(=O)CCCC[C@@H]1SC[C@@H]2NC(=O)N[C@@H]21)C(N)=O [Peptide-17] | – | – | – | – | – | – | – | – | 0.13
